The source of these data is patent publication US20020019420A1, “Methods and compositions for treating gastric disorders using optically pure (+)-pantoprazole” (Sepracor Inc., priority 1993, published 2002).

Structures are written as SMILES. Where two headings read alike, the source gives them in different places.

For data set [1], the system named is hepatic drug metabolizing enzyme systems. As to conditions: intact rats and rat microsomal enzyme preparations; cited from earlier work.
For data set [2] the following is noted: neutral and moderately acidic conditions; cited from earlier work.
A short description of data set [3]: acute toxicity LD50 in mice. It is filed as in vivo.
Data set [4] relates to endogenous acid secretion. The experiment in a line: reduction of endogenous acid secretion in pylorus-ligated rats. It is filed as in vivo, rat. From the text: This may increase pantoprazole's selectivity for the acid secreting parietal cells, where low pH conditions exist in the intracellular canaliculi. In intact animals, pantoprazole is active in inhibiting gastric acid secretion in both rats and dogs. Specifically, the intravenous and oral doses required to reduce endogenous acid secretion in pylorus-ligated rats by 50% are in the 1-3 μmole/kg range. […] Racemic pantoprazole is also effective at doses less than 5 μmole/kg in inhibiting exogenously stimulated acid. secretion induced by a variety of agonists, indicating general activity of the drug in inhibiting acid secretion.

For data set [5] the following is noted: cited from earlier work.
Data set [6] relates to exogenously stimulated acid secretion. Conditions: variety of agonists; cited from earlier work.
The conditions of data set [7]: patients with duodenal ulcers, after four weeks of 20 to 80 mg per day; cited from earlier work.
For data set [8] the following is noted: rats, two year study; cited from earlier work.
For data set [9] the following is noted: humans, short-term administration; cited from earlier work.
For data set [10] the following is noted: rat, cited from earlier work.
Data set [11] deals with endogenous acid secretion. Conditions: pylorus-ligated rats, cited from earlier work.
For data set [12] the following is noted: weak acid; cited from earlier work.
The test system of a further data set is beta-adrenergic. As to conditions: L-form versus D-enantiomer; cited from earlier work.

Take `COc1ccnc(C[S+]([O-])c2nc3ccc(OC(F)F)cc3[nH]2)c1OC` (racemic) [racemic pantoprazole]: the “inhibition of hepatic drug metabolizing enzyme systems compared to omeprazole” value in [1] was “weaker inhibitor”. Besides, in data set [2], the “chemical stability compared with omeprazole” value is listed as “more chemically stable”. The “p.o./i.v. LD50 ratio” value in [3] is reported as “approximately 2”. Besides, in data set [4], the “calculated oral/intravenous (p.o./i.v.) ratio of the 50% doses” value is “approximately 2”. The “intravenous LD50” value is 975 µmol/kg in [5] (mice, intravenous) and 632 µmol/kg in [10] (intravenous). The “oral LD50” value in data set [5] (mouse, in vivo, po) was 1,893 μmol/kg; in data set [10] (in vivo, po), > 2,467 μmol/kg. Moreover, the “effective dose inhibiting exogenously stimulated acid secretion” value in [6] is on record as “less than 5 μmole/kg”. Moreover, the ulcer healing in [7] is reported as 90-100%. Moreover, the “finding in carcinogenicity study” value in [8] was “hepatocellular neoplasia”. Further, in data set [9], the “fasting serum gastrin levels” value was “significantly elevated”. Further, the “intravenous dose required to reduce endogenous acid secretion by 50%” value in data set [11] (intravenous) was 1 to 3 µmol/kg. Also, in data set [11] (oral), the “oral dose required to reduce endogenous acid secretion by 50%” value is 1 to 3 µmol/kg.

Take `COc1ccnc(C[S+]([O-])c2nc3ccc(OC(F)F)cc3[nH]2)c1OC` (single isomer, unassigned; (+)) [(+) pantoprazole, (+) isomer of 5-(difluoromethoxy)-2-[[3,4-dimethoxy-2-pyridinyl)methyl]sulfinyl]-1H-benzimidazole]: the PKa in data set [12] is listed as 8.2.

`CC(C)NC[C@H](O)COc1cccc2ccccc12` [L-form of propranolol, propranolol]: the “potency relative to the D-enantiomer” value in the data set on beta-adrenergic was 100 times.
